Publication PMC4886532, “A highly soluble, non-phototoxic, non-fluorescent blebbistatin derivative” (Scientific Reports, 2016)
In brackets after ≈: the same amount, converted by molar mass. Like-named read-outs stand apart in the source and are kept apart here.

Key:
myosin II = conditions: no reference given; cited from earlier work
zebrafish heart muscle = assay: Heart beating and amplitude of heart muscle contraction; format: in vivo, zebrafish (Danio rerio); conditions: 20 μM, 6 dpf
Experimental: (§1) Since the myosin II inhibitors decrease the ATPase activity of SkS1 in vitro, we tested their inhibition on zebrafish skeletal muscle in vivo. We investigated the fast escape response (C-start) reflex of 6 dpf fish evoked by standardized tapping stimuli (Video 1). […] The velocity of the rotating heads of the embryos were quantified (maximal angular velocity) in the absence and in the presence of increasing concentrations of the myosin II inhibitors (2, 5, 10, 20 μM), monitored for 4 hours. The half maximal effective concentration (EC50) values for the inhibition of the maximal angular velocity by the myosin II inhibitors are below 2 μM since even at 2 μM the inhibitory effects were >90% for all inhibitors. We experienced that the inhibitory effect of para-aminoblebbistatin is exerted much slower than that of blebbistatin and para-nitroblebbistatin, probably due to its slower uptake (half inhibitions at […], respectively) (Supplementary Figure 1). To further evaluate the specificity of blebbistatin and its derivatives on different myosin II isoforms, we examined the effect of the inhibitors on 6 dpf (days post fertilization) zebrafish heart muscle in vivo. We monitored heart beating and the amplitude of heart muscle contraction before and after the addition of 20 μM of the inhibitors to the specimens.
(§2) The tapping force was standardized. […] For the cytotoxicity assay, zebrafish embryos were incubated in E3 medium containing 0 μM (Control), 5 μM, 10 μM or 20 μM of para-aminoblebbistatin, para-nitroblebbistatin or blebbistatin in 0.1 vol/vol% final concentration of DMSO and monitored for 70 hours.

[1] = target: T1, Dictyostelium discoideum myosin II motor domain (DdMD) (Dictyostelium discoideum, UniProt P08799); assay: biochemical; conditions: for IC50: 20 °C
T1 construct: Dictyostelium discoideum myosin II motor domain (DdMD)
T1 sequence (P08799 86-759 limits assumed): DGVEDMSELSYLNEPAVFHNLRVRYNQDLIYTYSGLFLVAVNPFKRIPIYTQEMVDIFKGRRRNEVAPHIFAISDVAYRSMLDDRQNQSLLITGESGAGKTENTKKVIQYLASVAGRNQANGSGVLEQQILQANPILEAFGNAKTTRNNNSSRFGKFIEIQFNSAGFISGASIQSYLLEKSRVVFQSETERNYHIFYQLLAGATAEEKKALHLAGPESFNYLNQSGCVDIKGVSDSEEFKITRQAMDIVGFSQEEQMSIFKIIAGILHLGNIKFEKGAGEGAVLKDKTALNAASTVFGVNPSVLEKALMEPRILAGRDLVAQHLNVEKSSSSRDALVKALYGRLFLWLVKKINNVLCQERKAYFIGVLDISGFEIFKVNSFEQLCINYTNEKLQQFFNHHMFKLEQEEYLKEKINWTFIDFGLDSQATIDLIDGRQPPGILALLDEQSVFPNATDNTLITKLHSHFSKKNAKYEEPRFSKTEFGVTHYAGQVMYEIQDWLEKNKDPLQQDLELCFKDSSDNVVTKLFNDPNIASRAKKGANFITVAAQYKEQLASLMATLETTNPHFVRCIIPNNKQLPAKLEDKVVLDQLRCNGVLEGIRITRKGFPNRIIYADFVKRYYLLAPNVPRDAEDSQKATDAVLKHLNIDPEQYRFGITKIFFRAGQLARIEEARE
Experimental: (§3) Myosin and actin together with the indicated concentration of the inhibitor were pre-incubated for 5 minutes at room temperature and the measurements were initiated with 1 mM ATP. Data were corrected for background ATPase activity of actin. G-actin was prepared accordingly from rabbit skeletal muscle[24] and polymerized by 2 mM MgCl2 for 1 hour at room temperature. Measurements were performed in low salt buffer containing 5 mM HEPES, 2 mM MgCl2, 0.1 mM EGTA and 2 mM DTT at pH 7.2 or assay buffer containing 20 mM HEPES, 40 mM NaCl, 4 mM MgCl2 at pH 7.3 for basal ATPase activity measurements with DdMD.

[2] = system: zebrafish skeletal muscle; assay: Fast escape response (C-start), maximal angular velocity; format: in vivo, zebrafish (Danio rerio); conditions: 2 μM
Experimental: as §1, §2

M2 cells = assay: Inhibition of blebbing (blebbing index) of M2 cells; format: cell-based, human
Experimental: Next, we compared the non-muscle myosin II inhibition by para-aminoblebbistatin, para-nitroblebbistatin and blebbistatin in human melanoma (M2) and HeLa cells. As blebbistatin acquired its name from its ability to block blebbing of M2 cells, we compared blebbing indices[17] of M2 cells in time, incubated in the three different myosin II inhibitors at different concentrations (Fig. 3c–e). Even 5 μM concentrations of the myosin II inhibitors achieved significant decrease in the blebbing indices of the cells within an hour, whereas higher concentrations of the inhibitors completely stopped blebbing of the cells within >40–60 minutes (10 μM) or >20 minutes (25 and 50 μM).
For blebbing index determination, M2 cells were incubated for 30 minutes in PBS in every case prior to the addition of inhibitors, in order to initiate extensive blebbing. Blebbing of the cells was monitored before as well as after inhibitor addition to the cells. DMSO concentration was 0.1 vol/vol% in all experiments. Blebbing index was calculated by summing the initiated blebs in a 5-minute interval (starting at the indicated time points) on a given standard area[17] (whole cells with similar size, diameter = 12 ± 1 μm) and normalizing it to the blebbing index prior to inhibitor treatment.

HeLa cells = assay: Wound healing assay (cell motility); format: cell-based, human; conditions: 20 μM, 24 hours, uncoated glass; 100% = total diameter of the wound; control 30.6 ± 5.4%
Experimental: For wound healing assays, 200 μl of HeLa cells were plated on 35 mm borosilicate glass imaging dishes at 300,000 cells/ml concentrations and incubated for 24 hours. 1 hour prior to wounding, cells were incubated in 20 μM of the different myosin II inhibitors. After one hour, scratches were made with pipette tips in monolayer cultures and the motility of cells for occupying the wound was monitored for 24 hours with a Foculus Digital Camera (IEEE1394). Analysis of cell motility was carried out by ImageJ, by measuring the distance between two lines fitted on the two sides of the approaching cell edges created by the pipette tips.

[3] = system: cldnb:gfp zebrafish embryos; assay: Posterior lateral line primordium (pLLp) migration; format: in vivo, zebrafish (Danio rerio); conditions: 20 μM, 24 hours of incubation
Experimental: However, the highly fluorescent, dense precipitates of blebbistatin disturb imaging in the GFP channel of the microscope. […] In this experiment, cldnb:gfp zebrafish embryos were imaged by an epifluorescent microscope after 24 hours of incubation in the presence of 20 μM concentrations of the indicated inhibitors (Fig. 4d) in order to detect the effect of myosin II inhibition on the proliferating leading edge of the posterior lateral line primordium (pLLp)[21] and visualize the effect of the precipitates by epifluorescent microcopy. […] In the case of para-aminoblebbistatin treatment, the GFP signal of the migrating pLLp can be visualized clearly, while the precipitates of the two other inhibitors highly disturbed the imaging.

[4] = Solubility assays in assay buffer (supernatant concentration after centrifugation); conditions: room temperature
Experimental: 50 μM of the inhibitors were dissolved in assay buffer (see Experimental Procedures) containing 0.1 or 1 vol/vol% DMSO, centrifuged at the indicated times and the concentration of the supernatants were determined at each time point (Fig. 2a,b).
The DMSO content was 1%. […] The experiments were repeated three times.

[5] = system: HeLa Kyoto H2B-mCherry eGFP-α-tubulin cells; assay: Cell growth assay (cell number, cytokinesis)
Experimental: Cells incubated in different concentrations of the inhibitors were counted on each day for three days.

[6] = target: T2, rabbit skeletal muscle myosin S1 (SkS1) (Oryctolagus cuniculus, UniProt Q28641); assay: Steady state basal ATPase, SkS1; format: biochemical; conditions: 25 °C
T2 construct: SkS1 (rabbit skeletal S1 fragment); from tissue; host or cells: rabbit skeletal muscle
T2 sequence (Q28641 1-844 limits assumed): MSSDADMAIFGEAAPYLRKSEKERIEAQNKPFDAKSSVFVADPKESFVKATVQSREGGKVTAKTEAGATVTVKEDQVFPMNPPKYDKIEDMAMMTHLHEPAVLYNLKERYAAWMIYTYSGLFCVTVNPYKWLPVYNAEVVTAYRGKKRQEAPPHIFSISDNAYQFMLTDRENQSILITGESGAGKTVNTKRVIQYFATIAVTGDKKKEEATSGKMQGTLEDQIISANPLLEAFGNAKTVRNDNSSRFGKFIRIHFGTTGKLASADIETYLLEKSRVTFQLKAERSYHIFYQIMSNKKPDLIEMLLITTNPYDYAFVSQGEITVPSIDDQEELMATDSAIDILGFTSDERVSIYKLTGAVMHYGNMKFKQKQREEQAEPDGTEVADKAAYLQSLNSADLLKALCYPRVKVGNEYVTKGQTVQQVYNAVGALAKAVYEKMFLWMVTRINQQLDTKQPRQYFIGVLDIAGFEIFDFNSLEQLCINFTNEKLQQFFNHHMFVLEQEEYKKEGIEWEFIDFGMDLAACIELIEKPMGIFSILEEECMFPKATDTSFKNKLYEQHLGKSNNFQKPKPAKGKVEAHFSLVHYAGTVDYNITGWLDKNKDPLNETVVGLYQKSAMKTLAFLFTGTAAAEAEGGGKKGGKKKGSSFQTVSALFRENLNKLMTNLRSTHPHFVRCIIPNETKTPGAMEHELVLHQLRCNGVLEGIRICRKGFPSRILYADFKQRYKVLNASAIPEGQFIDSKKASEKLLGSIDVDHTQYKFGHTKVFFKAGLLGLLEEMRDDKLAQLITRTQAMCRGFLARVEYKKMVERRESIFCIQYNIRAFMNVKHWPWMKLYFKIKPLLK
T2 sequence (P02602 whole entry partner, the tested form may be a part): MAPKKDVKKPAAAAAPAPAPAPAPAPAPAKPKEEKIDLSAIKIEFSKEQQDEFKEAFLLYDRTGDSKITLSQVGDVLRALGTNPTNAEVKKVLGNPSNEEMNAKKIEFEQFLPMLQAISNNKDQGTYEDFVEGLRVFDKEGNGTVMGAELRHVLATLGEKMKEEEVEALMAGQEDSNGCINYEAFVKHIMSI

zebrafish embryo = system: zebrafish embryo; parameters: method as in PMID 24954740; conditions: after 24 hours of incubation; cited from earlier work
[7] = target: T2, rabbit skeletal muscle myosin S1 (SkS1); assay: Steady state actin activated ATPase, SkS1; format: biochemical; conditions: 45 μM actin, 25 °C
Experimental: as §3, with “[…]. Myosin” for “Myosin”

Structure (SMILES) | IC50 (myosin II) [µM] | Time within which amplitude of contraction and blood circulation dropped drastically (zebrafish heart muscle) | Maximal inhibition of actin activated ATPase of DdMD [1] | Maximal inhibition of basal ATPase of DdMD [1] | IC50 ([1]; 15 μM actin, read-out: IC50 actin activated ATPase activity of DdMD) [µM] | IC50 ([1]; read-out: IC50 basal ATPase of DdMD) [µM] | Half inhibition time of maximal angular velocity [2] [h] | Time constant τ of inhibition of blebbing (M2 cells; 5 μM) [min] | Time constant τ of inhibition of blebbing (M2 cells; 10 μM) [min] | Time constant τ of inhibition of blebbing (M2 cells; 25 μM) [min] | Relative migration of HeLa cells (HeLa cells) [%] | Effect on pLLp migration [3] | Solubility ([4]; 0.1 vol/vol% DMSO in assay buffer) [µM] | Solubility ([4]; 1 vol/vol% DMSO in assay buffer) [µM] | Fold weaker IC50 than blebbistatin's (cell proliferation) ([5]; day 3) | IC50 ([5]; read-out: IC50 of the inhibition of cell proliferation, cell number at day 3) [µM] | IC50 [6] [µM] | Toxicity in live zebrafish embryo tests (zebrafish embryo) | IC50 [7] [µM]
Cc1cc2c(cc1[N+](=O)[O-])N=C1N(c3ccccc3)CCC1(O)C2=O (stereo not shown) [nitroblebbistatin] | 27.5 | – | – | – | – | – | – | – | – | – | – | – | – | – | – | – | – | – | –
Cc1ccc2c(c1)C(=O)[C@]1(O)CCN(c3ccc([N+](=O)[O-])cc3)C1=N2 [para-nitroblebbistatin] | – | within the first hour | ~ 100% | ~ 100% | 3.4 ± 0.3 | 5.3 ± 1.6 | 1.3 | 21.9 ± 4.6 | 11.7 ± 0.5 | 5.9 ± 0.2 | 53.2 ± 17.6 | halted pLLp migration | 3.3 ± 0.1 (≈ 1.11 µg/mL) | 3.6 ± 0.2 (≈ 1.21 µg/mL) | 2–3 times | 14.7 ± 4.2 | 0.3 ± 0.04 | negligible | 0.1 ± 0.004
